From the NIST ThermoML archive (doi:10.1016/j.jct.2008.09.020)
Where “and” joins values, the source holds several entries; their conditions need not be identical. Equal entries are not always repeated. Numbers after ± are expanded uncertainties.

conditions: 313.15 K; Liquid; Ebulliometric method (Recirculating still)

Row | SMILES | vapor or sublimation pressure
1 | CCOC(C)(C)C [2-ethoxy-2-methylpropane] | 31.63 ± 0.17 kPa and 31.64 ± 0.17 kPa
2 | C=CCCCC [hex-1-ene] | 44.96 ± 0.28 kPa and 44.94 ± 0.28 kPa
3 | Cc1ccccc1 [toluene] | 7.869 ± 0.07 kPa and 7.872 ± 0.07 kPa
